The record followed here is ChEMBL document CHEMBL3044549, “Colchicine and its various physicochemical and biological aspects” (Med Chem Res, 2013).

The nature of series [1]: Elimination half life in healthy Homo sapiens (human). It counts as ADME, organism-based. As to conditions: in vivo, read-out: beta t1/2 (converted).
Series [2] can be described thus: Renal clearance in healthy Homo sapiens (human). As to conditions: in vivo. The format is ADME, organism-based, Kidney.
The nature of series [3]: Volume of distribution in Homo sapiens (human). It counts as ADME, organism-based. The conditions noted are these: in vivo.
For another series, the species on record is Homo sapiens. As to the kind of experiment: Distribution half life in Homo sapiens (human). It counts as ADME, organism-based. As to conditions: in vivo.
Series [4] can be described thus: Oral bioavailability in older Homo sapiens (human) individuals at 1 mg. It counts as ADME, organism-based. As to conditions: in vivo.
Series [5] in a line: Oral bioavailability in healthy Homo sapiens (human) at 1 mg. It counts as ADME, organism-based. The conditions noted are these: in vivo.

As for `COc1cc2c(c(OC)c1OC)-c1ccc(OC)c(=O)cc1[C@@H](NC(C)=O)CC2` [COLCHICINE], in series [1], the half-life was 14 h. The compound further gave a CL renal in series [2] of 66.7 mL/min. For the same compound, the Vd (in general, a proportionality between amount in the body and measured concentration, not a real space) in series [3] stood at 7 L/kg. In the series filed under Homo sapiens, this compound displayed an alphat1/2 of 1 h. Also, the bioavailability in series [4] and in series [5] was 45% throughout.
